The values below come from article PMC6522510 (Nature Communications, 2019).

Counter-ions that a name gives are not always drawn. Like-named read-outs stand apart in the source and are kept apart here.

Among the test systems are MV4-11; ML-2; CMK; CHRF288-11; MOLM-13; U937; M07e; CMS.
Holding throughout (set-up): species or system AML cell lines (8); Primary HTS, single concentration about 10 uM, Cell Titer Glo viability; log10 luminescence, per cent inhibition relative to cycloheximide control
Common to all, as to conditions: 72 h, relative to cycloheximide control, log10 luminescence, inhibitor

Regarding `Nc1c(C(=O)c2cccc(C(O)(CO)CO)c2)cnn1-c1ccc(F)cc1` [SJ000581150-1], the MV4-11 %inh with MV4-11 came out at 2.176%. In the experiment on ML-2, the ML-2 %inh was -0.9818%. Further, in the experiment on CMK, the CMK %inh is -0.6841%. The CHRF288-11 %inh in the experiment on CHRF288-11 is -1.927%. Moreover, the MOLM-13 %inh with MOLM-13 is 1.373%. Moreover, the U937 %inh in the experiment on U937 is on record as -0.03378%. Also, the M07e %inh with M07e is recorded as 0.2609%. Moreover, the CMS %inh with CMS is recorded as 0.8259%.

As for `CCN(CC)S(=O)(=O)c1ccc(OC)c(Nc2ncc(-c3ccccc3)o2)c1` [SJ000573177-1, U14961/35/1], the MV4-11 %inh with MV4-11 amounted to 74.67%. Further, in the experiment on ML-2, the ML-2 %inh worked out at 1.232%. Besides, the CMK %inh in the experiment on CMK is recorded as 11.05%. In addition, the CHRF288-11 %inh with CHRF288-11 is -8.829%. Also, the MOLM-13 %inh in the experiment on MOLM-13 is 13.29%. In the experiment with U937, the U937 %inh was determined as 3.148%. For the same molecule, the M07e %inh with M07e is -3.903%. The CMS %inh in the experiment on CMS was found to be 2.203%.

Consider `COCCOC(=O)C1=C(C)NC(C)=C(C(=O)OC(C)C)C1c1cccc([N+](=O)[O-])c1` (stereo not shown) [SJ000285435-10, NIMODIPINE], for which the MV4-11 %inh in the experiment on MV4-11 (MV4-11 %inh, 10 µM) was determined as 10.46%. Besides, in the experiment with ML-2 (ML-2 %inh, 10 µM), the ML-2 %inh was 3.623%. In addition, the CMK %inh with CMK (CMK %inh, 10 µM) is on record as 2.191%. Also, the CHRF288-11 %inh with CHRF288-11 (CHRF288-11 %inh, 10 µM) is on record as 10.94%. The MOLM-13 %inh with MOLM-13 (MOLM-13 %inh, 10 µM) is 3.657%. The U937 %inh with U937 (U937 %inh, 10 µM) is recorded as 7.013%. In the experiment on M07e (M07e %inh, 10 µM), the M07e %inh is 6.293%. The CMS %inh in the experiment on CMS (CMS %inh, 10 µM) is reported as 10.67%.

On to `C[C@H](NC(=O)Cc1cc(F)cc(F)c1)C(=O)N[C@H](C(=O)OC(C)(C)C)c1ccccc1` [SJ000772434-1, DAPT | DAPT (GSI-IX)], for which, in the experiment with MV4-11, the MV4-11 %inh came out at 5.48%. Moreover, the ML-2 %inh with ML-2 is 5.016%. Further, the CMK %inh in the experiment on CMK was -0.675%. Moreover, the CHRF288-11 %inh with CHRF288-11 is 2.669%. The MOLM-13 %inh with MOLM-13 is 2.225%. Besides, the U937 %inh with U937 is recorded as 0.2025%. Besides, in the experiment with M07e, the M07e %inh is listed as 1.132%. Besides, the CMS %inh with CMS is given as 0.2641%.

For the molecule `COC(=O)C1=C(C)N(CCc2cc(OC)c(OC)c(OC)c2)C(=O)N[C@H]1c1ccccc1` [SJ000579768-1], the MV4-11 %inh in the experiment with MV4-11 is reported as 3.524%. Besides, in the experiment with ML-2, the ML-2 %inh was -0.773%. Besides, the CMK %inh in the experiment with CMK was -0.2715%. In the experiment on CHRF288-11, the CHRF288-11 %inh is -6.017%. In addition, in the experiment with MOLM-13, the MOLM-13 %inh was -2.193%. Further, the U937 %inh in the experiment on U937 is given as -0.6782%. In the experiment with M07e, the M07e %inh was -5.412%. Also, the CMS %inh in the experiment with CMS is -1.498%.

Consider `COc1cc2ncn(-c3cc(OCc4ccccc4C(F)(F)F)c(C(C)=O)s3)c2cc1OC` [SJ000573292-1, U22436/134/1], for which the MV4-11 %inh with MV4-11 was -4.181%. In addition, the ML-2 %inh in the experiment on ML-2 is given as -2.426%. The CMK %inh in the experiment on CMK is listed as -1.073%. Also, in the experiment on CHRF288-11, the CHRF288-11 %inh is -3.203%. In addition, the MOLM-13 %inh with MOLM-13 is on record as -1.507%. Further, in the experiment with U937, the U937 %inh is given as -1.322%. Also, the M07e %inh in the experiment with M07e is on record as -3.084%. The CMS %inh in the experiment on CMS amounted to 0.7881%.

For `COC[C@H](N=C1NC(=O)/C(=C/c2ccc3ncccc3c2)S1)c1ccccc1` [SJ000581086-1], in the experiment with MV4-11, the MV4-11 %inh is -0.3199%. Also, the ML-2 %inh in the experiment on ML-2 was determined as 2.549%. Also, the CMK %inh with CMK is reported as 5.986%. The CHRF288-11 %inh in the experiment on CHRF288-11 came out at 2.677%. In the experiment with MOLM-13, the MOLM-13 %inh was -1.579%. In the experiment with U937, the U937 %inh was 4.246%. The M07e %inh with M07e is 15.62%. Moreover, the CMS %inh with CMS was 4.472%.

In the case of `Cc1cc(C)c2c(n1)sc1c(N)ncnc12` [SJ000581012-1], the MV4-11 %inh with MV4-11 was -4.498%. In the experiment with ML-2, the ML-2 %inh is -0.0326%. Also, in the experiment with CMK, the CMK %inh is -2.956%. For the same molecule, in the experiment with CHRF288-11, the CHRF288-11 %inh is 1.655%. In addition, the MOLM-13 %inh with MOLM-13 is -1.383%. Moreover, in the experiment on U937, the U937 %inh is 3.328%. The M07e %inh in the experiment on M07e is recorded as -1.463%. Besides, the CMS %inh with CMS was determined as 2.019%.

With `C=C(CC)C(=O)c1ccc(OCC(=O)O)c(Cl)c1Cl` [SJ000285761-4, ETHACRYNIC ACID], the MV4-11 %inh in the experiment on MV4-11 is 1.71%. For the same molecule, the ML-2 %inh in the experiment on ML-2 is 6.312%. Moreover, the CMK %inh with CMK stood at 27.12%. Besides, in the experiment on CHRF288-11, the CHRF288-11 %inh amounted to 13.52%. For the same molecule, in the experiment on MOLM-13, the MOLM-13 %inh was determined as 7.494%. In addition, the U937 %inh in the experiment with U937 was 4.395%. Besides, the M07e %inh in the experiment with M07e amounted to 4.659%. Besides, the CMS %inh with CMS is listed as -0.1029%.

With `CCn1c(=O)c(Oc2ccc(F)cc2F)cc2cnc(NC3CCOCC3)nc21` [SJ000581151-1], in the experiment with MV4-11, the MV4-11 %inh is on record as 2.556%. Further, in the experiment on ML-2, the ML-2 %inh is -1.057%. Also, the CMK %inh in the experiment with CMK is on record as 8.128%. Moreover, the CHRF288-11 %inh in the experiment on CHRF288-11 is given as -1.135%. In addition, in the experiment on MOLM-13, the MOLM-13 %inh is reported as 2.299%. For the same molecule, the U937 %inh in the experiment on U937 came to 0.6844%. The M07e %inh with M07e is 11.45%. Besides, the CMS %inh in the experiment on CMS was -2.221%.

As for `Cn1cc(C2=C(c3cn(C)c4cc(C(=O)O)ccc34)C(=O)NC2=O)c2ccccc21` [SJ000580970-1], the MV4-11 %inh in the experiment on MV4-11 is 2.908%. Besides, the ML-2 %inh with ML-2 is recorded as -3.521%. Besides, the CMK %inh in the experiment on CMK stood at 35.03%. Also, the CHRF288-11 %inh in the experiment on CHRF288-11 was found to be 12.22%. For the same molecule, the MOLM-13 %inh with MOLM-13 is on record as 4.437%. Besides, in the experiment on U937, the U937 %inh was -0.7361%. Also, the M07e %inh in the experiment with M07e was -3.399%. For the same molecule, in the experiment on CMS, the CMS %inh was -3.422%.

With `Cc1nnc(-c2ccc(C)c(-c3ccc(C(=O)NCc4ccc(Cl)cc4)cc3)c2)o1` [SJ000573166-1, R5419/62/6], in the experiment on MV4-11, the MV4-11 %inh is -0.3161%. Further, the ML-2 %inh in the experiment on ML-2 was 2.787%. For the same molecule, the CMK %inh in the experiment on CMK came to 2.525%. In addition, the CHRF288-11 %inh in the experiment with CHRF288-11 is -0.1255%. The MOLM-13 %inh in the experiment with MOLM-13 was 2.185%. Besides, in the experiment with U937, the U937 %inh is given as 3.066%. Besides, the M07e %inh in the experiment on M07e was determined as 6.199%. Further, the CMS %inh with CMS worked out at 4.153%.

Turning to `COc1ccc2cc(-c3c(-c4ccncc4)nc(-c4ccc([S+](C)[O-])cc4)n3C)ccc2c1` (stereo not shown) [SJ000573130-1, NJ44241-161A1], the MV4-11 %inh in the experiment on MV4-11 was -3.083%. In the experiment on ML-2, the ML-2 %inh was -0.4869%. The CMK %inh in the experiment on CMK is -2.307%. Moreover, in the experiment with CHRF288-11, the CHRF288-11 %inh was 0.3346%. For the same molecule, the MOLM-13 %inh with MOLM-13 is recorded as -0.6311%. For the same molecule, in the experiment with U937, the U937 %inh is given as -2.991%. The M07e %inh in the experiment on M07e is -4.153%. Moreover, the CMS %inh with CMS was -2.967%.

Consider `CCCCC1C(=O)N(c2ccccc2)N(c2ccccc2)C1=O` [SJ000285567-6, PHENYLBUTAZONE], for which, in the experiment with MV4-11, the MV4-11 %inh is listed as 1.406%. Further, the ML-2 %inh in the experiment with ML-2 is given as 1.616%. Also, in the experiment on CMK, the CMK %inh is given as -7.117%. Further, the CHRF288-11 %inh with CHRF288-11 was -2.959%. Besides, the MOLM-13 %inh with MOLM-13 was -1.33%. The U937 %inh in the experiment with U937 is -1.746%. Further, the M07e %inh with M07e is given as 3.977%. In the experiment with CMS, the CMS %inh is -0.9956%.

Take `CN(C)CCC=C1c2ccccc2C=Cc2ccccc21` [SJ000285960-7, CYCLOBENZAPRINE HYDROCHLORIDE]: the MV4-11 %inh with MV4-11 is 2.11%. In addition, the ML-2 %inh in the experiment on ML-2 turned out to be 3.717%. In the experiment with CMK, the CMK %inh came to 3.38%. Also, in the experiment with CHRF288-11, the CHRF288-11 %inh turned out to be 66.65%. In addition, the MOLM-13 %inh in the experiment with MOLM-13 was -2.604%. Further, in the experiment with U937, the U937 %inh is on record as 7.437%. Moreover, the M07e %inh with M07e is on record as 2.233%. Also, the CMS %inh in the experiment with CMS is recorded as -1.125%.

On to `Cn1cc(C2=C(c3c4n(c5ccccc35)CCCCC4)C(=O)NC2=O)c2ccccc21` [SJ000581007-1], for which the MV4-11 %inh in the experiment on MV4-11 is -1.05%. In the experiment with ML-2, the ML-2 %inh is on record as -3.106%. Also, the CMK %inh in the experiment on CMK came out at 2.966%. The CHRF288-11 %inh in the experiment with CHRF288-11 is given as -2.847%. In the experiment on MOLM-13, the MOLM-13 %inh is -0.4157%. For the same molecule, the U937 %inh with U937 is reported as -0.6469%. Further, the M07e %inh in the experiment with M07e was found to be 0.1866%. Moreover, the CMS %inh in the experiment with CMS is -2.233%.

`Cn1cc(C2=C(c3cn(C)c4cc(N)ccc34)C(=O)NC2=O)c2ccccc21` [SJ000581154-1]: in the experiment on MV4-11, the MV4-11 %inh came to 66.53%. Further, in the experiment with ML-2, the ML-2 %inh turned out to be 25.1%. Moreover, in the experiment on CMK, the CMK %inh worked out at 105.6%. Also, the CHRF288-11 %inh in the experiment with CHRF288-11 was 40.91%. Also, the MOLM-13 %inh in the experiment with MOLM-13 is listed as 77.98%. Further, the U937 %inh in the experiment with U937 stood at 39.79%. In addition, the M07e %inh in the experiment with M07e is recorded as 38.42%. For the same molecule, the CMS %inh in the experiment with CMS is 49.07%.
